Results taken from patent US9056067B2, “Pharmaceutical composition for enhancing immunity, and extract of Poria” (Sinphar Pharmaceutical Co., Ltd., priority 2003, dated 2015).

Columns and labels:
Format in all cases: in vivo, mice
[1] = tested on: IgG; test: IgG secretion by spleen cells in vitro (LPS, ELISA) after oral administration
Experimental: (§1) […] […] The control group was the mice feeding with an equal volume of saline (0.85% of NaCl). Mice were sacrificed at day five, and both the serum and spleen cells were collected. The sera were subsequently used to measure the concentration of IgG, IgM and IgA. The spleen cells were plated onto a 100 mm diameter culture plate and incubated at 37° C. for three hours. The non-adherent cells containing T-lymphocytes, B-lymphocytes and NK cells were collected and properly diluted as described in each assay.
(§2) The mouse to be sacrificed was cervical dislocated and sterilized with 70% ethanol. The cardiac punctuation was performed first to withdraw the blood. After the haemagglutination, the blood sample was subjected to centrifugation and the serum was collect. For isolation of spleen cells, the peritoneum was opened to remove the spleen. The fresh spleen was transferred to a culture plate containing 10 ml of RPMI-1640 culture medium. The spleen was then ground over a fine mesh to release the spleen cells. The spleen cells suspending in the medium were then removed and transferred to a 50-ml conical centrifuge tube. The tube was subjected to centrifugation at 1300 rpm for 10 min. The supernatant was discarded and the pellet was re-suspended in 1 ml of cold RBC lysing buffer containing EDTA-NH4Cl. The cells were incubated at room temperature for 10 min, followed by washing the cells three times with culture medium by centrifugation. The spleen cells were plated onto a 100 mm diameter culture plate and incubated at 37° C. for three hours. The non-adherent cells containing T-lymphocytes, B-lymphocytes and NK cells were collected and properly diluted as described in each assay.
(§3) An ELISA was performed in our study to measure the immunoglobulin concentration. Briefly, the spleen cells (5×10^5 cells/ml) were cultured in a medium containing RPMI 1640 supplemented with 10% fetal bovine serum (FBS), 2 mM L-glutamine, antibiotics and 5 μg/ml lipopolysaccharide (LPS; 1 μg/10^5 cells) for 5 days. LPS is a polyclonal activator of B lymphocyte. Culture spleen cell supernatants were collected at day 3, 4 and 5. IgA, IgG and IgM concentrations were measured using a sandwich ELISA technique.
(§4) A 96-well microtiter plate (Nunc-Immuno Plate, MaxiSorp, Nunc, Denmark) was precoated with 100 ng/well of capture antibodies at 4° C. overnight. The capture antibody was a rabbit anti-mouse IgG+IgA+IgM antibody (Zymed Laboratory, CA). The plate was washed with PBS-0.05% Tween 20 solution and blocked with PBS-1% gelatin. After the blocking, the properly diluted samples (1/10^5 diluted) and standard IgG ranged from 0.25 μg/ml to 0.039 μg/ml were added (100 μl/well). The plate was then incubated at 37° C. for 2 h. At the end of incubation, HRP-conjugated goat anti-mouse IgG (1:2,000 diluted; anti-whole IgG molecule; Zymed Laboratory, CA) was added (100 μl/well). After 1 h of incubation at 37° C., the color was developed using a substrate solution containing 0.1 M citrate buffer, pH 4.5, 0.03% H2O2 and 0.1% of o-phenylenediamine. The absorbence at 490 nm in each well was read using an ELISA reader (EL311, BioTek, VT), and the data was analyzed using log-logit model.

[2] = tested on: IgA; test: Serum level of IgA (ELISA); conditions: for Effect on serum concentrations of IgA (in words): oral
Experimental: as §1, §2, §3
The procedure for IgA assay was similar to that for IgG assay, except that the samples were 1/10^4 diluted and standard IgA ranged from 1 μg/ml to 0.0156 μg/ml were added (100 μl/well). The secondary antibody for the assay was HRP-conjugated goat anti-mouse IgA (1:1000 diluted; Zymed Laboratory, CA).

[3] = tested on: immune cells (T cells/B cells); test: Immunity response tests (overall statement); conditions: Table 2 to Table 10
Experimental: The Poria extract and the purified compounds from the Poria extract by chromatography prepared according to the methods of the present invention were tested by various immunity response experiments listed in the following.

[4] = tested on: IgM; test: IgM secretion by spleen cells in vitro (LPS, ELISA) after oral administration; conditions: for Dose with significant increase in IgM secretion by spleen cells: oral, after three days of in vitro culture
Experimental: as §1, §2, §3
The procedure for IgM assay was similar to that for IgG assay, except that the samples were 1/10^4 diluted and standard IgM ranged from 1 μg/ml to 0.0156 μg/ml were added (100 μl/well). The secondary antibody for the assay was HRP-conjugated goat anti-mouse IgM (1:1,000 diluted; heavy chain-specific; Zymed Laboratory, CA).

[5] = tested on: IgG; test: Serum level of IgG (ELISA)
Experimental: as §1, §2, §3, §4

[6] = oral 10 mg/kg/day for four days
[7] = oral 20 mg/kg/day for four days

Row | Structure (SMILES) | IgG secretion by spleen cell, incubation day 3 ([1]; oral 5 mg/kg/day for four days) | IgG secretion by spleen cell, incubation day 4 ([1]; oral 5 mg/kg/day for four days) | IgG secretion by spleen cell, incubation day 5 ([1]; oral 5 mg/kg/day for four days) | IgG secretion by spleen cell, incubation day 3 [1, 6] | IgG secretion by spleen cell, incubation day 4 [1, 6] | IgG secretion by spleen cell, incubation day 5 [1, 6] | IgG secretion by spleen cell, incubation day 3 [1, 7] | IgG secretion by spleen cell, incubation day 4 [1, 7] | IgG secretion by spleen cell, incubation day 5 [1, 7] | Effect on serum concentrations of IgA (in words) [2] | Serum immunoglobulin concentration IgA ([2]; oral 5 mg/kg/day for four days) | Serum immunoglobulin concentration IgA [2, 6] | Serum immunoglobulin concentration IgA [2, 7] | Dosage at which potent [3] | Immunity enhancement in immune cells (T cells/B cells) (in words) [3] | IgM secretion by spleen cell, incubation day 3 ([4]; oral 5 mg/kg/day for four days) | IgM secretion by spleen cell, incubation day 4 ([4]; oral 5 mg/kg/day for four days) | IgM secretion by spleen cell, incubation day 5 ([4]; oral 5 mg/kg/day for four days) | IgM secretion by spleen cell, incubation day 3 [4, 6] | IgM secretion by spleen cell, incubation day 4 [4, 6] | further results
1 | C=C(CC[C@@H](C(=O)O)[C@H]1[C@H](O)C[C@@]2(C)C3=CC[C@H]4C(C)(C)C(=O)CC[C@]4(C)C3=CC[C@]12C)C(C)C [K3] | 3.85 ± 0.73 | 3.43 ± 0.40 | 4.46 ± 0.95 | 3.18 ± 0.55 | 3.16 ± 0.62 | 3.48 ± 0.43 | 6.12 ± 0.70 | 7.10 ± 1.39 | 8.56 ± 1.34 | no effect | 3.65 ± 0.26 mg/mL | 3.81 ± 0.46 mg/mL | 3.55 ± 0.37 mg/mL | potent at dosage low than 2.5 or 5.0 | immunity enhancement activities | 222.42 ± 42.83 | 214.45 ± 28.51 | 277.52 ± 101.63 | 287.66 ± 44.44 | 294.30 ± 30.68 | Effect on IgG secretion by spleen cells (in words) ([1]; oral): significantly suppressed; IgM secretion by spleen cell, incubation day 5 [4, 6]: 309.51 ± 30.88; IgM secretion by spleen cell, incubation day 3 [4, 7]: 372.14 ± 69.48; IgM secretion by spleen cell, incubation day 4 [4, 7]: 519.53 ± 52.63; IgM secretion by spleen cell, incubation day 5 [4, 7]: 606.44 ± 88.10; Dose with significant increase in IgM secretion by spleen cells [4]: 10 mg/kg/day; Serum immunoglobulin concentration IgG ([5]; oral 5 mg/kg/day for four days): 1.32 ± 0.09 mg/mL; Serum immunoglobulin concentration IgG [5, 6]: 1.28 ± 0.13 mg/mL; Serum immunoglobulin concentration IgG [5, 7]: 1.14 ± 0.11 mg/mL
2 | C=C(CCC(C(=O)O)C1C(O)CC2(C)C3=CCC4C(C)(CCC(O)C4(C)C)C3=CCC12C)C(C)C (stereo not drawn) [K4] | 12.55 ± 3.08 | 12.99 ± 0.86 | 18.29 ± 0.92 | 6.54 ± 1.43 | 15.15 ± 5.16 | 22.59 ± 5.35 | 21.23 ± 3.19 | 19.11 ± 4.23 | 22.56 ± 3.84 | no effect | 3.33 ± 0.13 mg/mL | 3.39 ± 0.25 mg/mL | 3.54 ± 0.12 mg/mL | potent at dosage low than 2.5 or 5.0 | immunity enhancement activities | 463.65 ± 76.41 | 688.17 ± 85.78 | 649.89 ± 70.09 | 514.45 ± 70.30 | 733.58 ± 95.70 | IgM secretion by spleen cell, incubation day 5 [4, 6]: 807.32 ± 104.21; IgM secretion by spleen cell, incubation day 3 [4, 7]: 747.6 ± 128.42; IgM secretion by spleen cell, incubation day 4 [4, 7]: 746.50 ± 157.76; IgM secretion by spleen cell, incubation day 5 [4, 7]: 857.49 ± 92.19; Dose with significant increase in IgM secretion by spleen cells [4]: ≥ 5 mg/kg/day; Serum immunoglobulin concentration IgG ([5]; oral 5 mg/kg/day for four days): 3.75 ± 0.18 mg/mL; Serum immunoglobulin concentration IgG [5, 6]: 4.33 ± 0.29 mg/mL; Serum immunoglobulin concentration IgG [5, 7]: 4.18 ± 0.25 mg/mL
